These results are taken from article PMC10137179, “Assessment of Covalently Binding Warhead Compounds in the Validation of the Cytomegalovirus Nuclear Egress Complex as an Antiviral Target” (Cells, 2023).

Molecules are shown by their SMILES. Read-outs that look alike come from different tables or passages of the source. Bounds are passed on as bounds.

The term EC50 denotes the concentration that produces a half-maximal response.

The target in assay [1] is T1, pUL50-HA + pUL53-Flag (Human cytomegalovirus, UniProt P16791).
T1 construct: expressed in transfected cells; host or cells: 293T
Briefly: Coimmunoprecipitation (CoIP) of pUL50-HA and pUL53-Flag from cotransfected 293T cells. It counts as binding, HCMV. Particulars: serial concentrations, mostly at 20–40 µM; added 24 h p.t. or after cell lysis. Here is the method: For CoIP analysis, 293T cells were seeded in 10 cm dishes with a density of 5 × 10^6 cells and used for transient transfection with expression plasmids. Then, 2–3 days post-transfection (d p.t.), CoIP was performed as described previously, using mAb-HA (H9658, Sigma-Aldrich, St. Louis, MO, USA). In brief, cells were lysed in 500 μL CoIP buffer (50 mM Tris/HCl (pH 8.0), 150 mM NaCl, 5 mM EDTA, 0.5% NP-40, 1 mM PMSF, 2 μg/mL aprotinin, 2 μg/mL leupeptin and 2 μg/mL pepstatin). Subsequently, total lysates were incubated with antibody-coated (2 μL of tag-specific or control antibodies) Dynabeads® Protein A (30 μL per sample; Life Technologies, Carlsbad, CA, USA) for 2 h at 4 °C under rotation. The precipitates were washed five times with 1 mL of CoIP buffer. CoIP samples and lysate controls were taken prior to the addition of the CoIP antibody. SDS-PAGE and standard Western blot analysis of cell lysates was performed using equal protein amounts as described previously. […]
In both cases, total lysates were prepared at 48 h p.t., and the CoIP analysis was performed under continued drug treatment (Figure S3). The protein applied as the basis for IP (using tag-specific mAb-HA) was pUL50-HA, and pUL53-Flag was detected as the CoIP partner. […]

Assay [2] concerns HCMV ∆UL50-ΣUL53. Briefly: qPCR-based replication assay, HCMV ∆UL50-ΣUL53 in HFF-UL50 cells. It counts as cell-based. The procedure: The viral genome copy number in cell culture supernatants was determined by IE1-specific quantitative real-time PCR (qPCR) as described previously. […] For the qPCR reactions, aliquots of infected-cell supernatants were incubated with proteinase K (Sigma-Aldrich, St. Louis, MO, USA) at 56 °C for 1 h in order to release the viral DNA. After a denaturation step at 95 °C for 5 min, the DNA samples were optionally stored at 4 °C or directly used for qPCR, as performed in a 25 µL reaction mixture containing 5 µL of either the sample or the standard DNA solution. Additional components of the reaction mixture were 12.5 µL 2× TaqMan PCR Mastermix (Applied Biosystems, Waltham, MA, USA), 7.5 pmol of each primer (5′-[…]-3′) and 5′-[…]-3′) and 5 pmol probe directed against the HCMV MIE region exon 4 (5′-[…]-3′), which was labeled with 6-carboxyfluorescein reporter dye and 6-carboxytetramethylrhodamine quencher dye. The DNA standard for quantification was prepared by serial dilutions of an MIE-inserted plasmid. The thermal cycling conditions consisted of two initial steps of 2 min at 50 °C and 10 min at 95 °C followed by 40 amplification cycles (15 s at 95 °C, 1 min 60 °C). Reactions were performed with an ABI Prism 7700 sequence detector (Applied Biosystems, Waltham, MA, USA).
To this end, the conditional expression system of the HCMV ΔUL50-ΣUL53 recombinant was applied. […] The relative differences in viral replication efficiencies, under these four chosen conditions, were normalized by two means, namely, by using the same conditions in the DMSO control panel (±S, ±D) and by evaluating viral replication in percentage values (% DMSO).
HFF-UL50 cells were cultivated in 96-well plates and infected with (A,B) HCMV ∆UL50-ΣUL53, with (C) parental HCMV AD169 (WT), using adjusted genome copy numbers, or remained uninfected (mock). Viral input was adjusted to 1 × 10^5 copies per well. […] Dox was refreshed every second day. At 14 d p.i., supernatants were harvested, and viral genome equivalents were determined using HCMV IE1-specific qPCR. Each condition was examined in biological quadruplicates; mean values ± SDs are shown. […] Statistical analysis was performed using ordinary one-way ANOVA and post hoc Tukey testing; **** p ≤ 0.0001; n.s., not significant.
On the technique in general: Quantitative PCR measures a nucleic acid by following its amplification.

T1 sequence (P16791 whole entry): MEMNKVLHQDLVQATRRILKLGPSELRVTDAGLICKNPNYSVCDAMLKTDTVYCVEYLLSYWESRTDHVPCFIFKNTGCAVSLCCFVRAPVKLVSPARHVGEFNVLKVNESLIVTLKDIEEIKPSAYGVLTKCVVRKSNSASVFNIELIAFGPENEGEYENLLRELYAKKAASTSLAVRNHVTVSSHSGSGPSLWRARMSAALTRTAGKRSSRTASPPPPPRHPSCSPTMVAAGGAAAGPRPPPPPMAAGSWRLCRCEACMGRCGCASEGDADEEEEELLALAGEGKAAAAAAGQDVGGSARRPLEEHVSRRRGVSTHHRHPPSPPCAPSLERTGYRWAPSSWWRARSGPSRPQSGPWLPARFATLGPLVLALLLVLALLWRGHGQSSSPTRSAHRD

Regarding `C=CC(=O)N1CCC[C@@H](n2nc(-c3ccc(Oc4ccccc4)cc3)c3c(N)ncnc32)C1` [ibrutinib], the “coimmunoprecipitated pUL53-Flag (in words)” value in assay [1] is listed as “trend of a reduction in coimmunoprecipitated pUL53-Flag”. Moreover, the EC50 in assay [2] (+S+D (Shield-1 1 µM, Dox 500 ng/mL), 14 d p.i., qPCR, two biological replicates) was 4.8 ± 11.1 µM; in assay [2] (Human betaherpesvirus 5, 336 h, +S+D (Shield-1 1 µM, Dox 500 ng/mL), 14 d p.i., qPCR, two biological replicates) it was 4 ± 3.6 µM; in assay [2] (Human betaherpesvirus 5, 336 h, +S-D (no pUL50 induction), 14 d p.i., qPCR), more than 32 µM; in assay [2] (Human betaherpesvirus 5, 336 h, -S+D (no pUL53 stabilization), 14 d p.i., qPCR) it was more than 32 µM; in assay [2] (Human betaherpesvirus 5, 336 h, -S-D (neither core NEC protein), 14 d p.i., qPCR, two replicates), more than 32 µM; in assay [2] (Human betaherpesvirus 5, read-out: mean EC50, ∆UL50-ΣUL53, +S+D, mean of replicates), 4.4 µM.
